Results on two molecules are retold here after article PMC12250605, “Recombinant Expression and Characterization of a Novel Type I Baeyer–Villiger Monooxygenase from a Streptomyces Strain Isolated from the Rhizosphere of the Atacama Desert Lupinus oreophilus” (International Journal of Molecular Sciences, 2025).

By Km is commonly meant the concentration of substrate that gives half-maximal velocity.

For the assay, the system named is T1, MO-G35A.
T1 construct: full-length, C-terminal His6 tag kept, codon-optimised gene; pET-28a (cytoplasmic) or pET-22b (pelB, periplasmic), E. coli NiCo21(DE3) or Shuffle T7; 73 kDa
Description: NADPH consumption at […] nm, sigmoidal fit. In kind it is biochemical, Streptomyces sp. G35A. The conditions noted are these: Tris-HCl pH 7.5, 30 °C (methods) or 35 °C (results), allosteric sigmoidal fit.

For `O=C1CC2C=CCC12` (centres unmarked) [BHC, bicyclo [3.2.0] hept-2-en-6-one], for the setting “200 µM NADPH”, the Km amounted to 60 µM. Regarding `NC(=O)C1=CN([C@@H]2O[C@H](COP(=O)(O)OP(=O)(O)OC[C@H]3O[C@@H](n4cnc5c(N)ncnc54)[C@H](OP(=O)(O)O)[C@@H]3O)[C@@H](O)[C@H]2O)C=CC1` [NADPH], the Km (5 mM BHC) stood at 23.8 µM.
